Measurements from patent publication US20060167001A1, “Pyridazinone-derivatives as pde4 inhibitors” (priority 2002, published 2006).
Where a name gives a salt, the structure may show the parent alone.

How the values were obtained:
[1] = target: PDE4 (cAMP-specific) (Homo sapiens, UniProt Q07343); experiment: Inhibition of PDE4 activity, Method A (radioactive cAMP hydrolysis, cytosol of human PMNL); format: biochemical; settings: cAMP substrate, 1 μM motapizone
[2] = target: T1, PDE3 (cGMP-inhibited) (Homo sapiens, UniProt Q14432); experiment: Inhibition of PDE3 activity, Method A (homogenates of human platelets); format: biochemical
T1 construct: investigated in homogenates of human platelets; from tissue; host or cells: homogenates of human platelets
T1 sequence (Q14432 whole entry): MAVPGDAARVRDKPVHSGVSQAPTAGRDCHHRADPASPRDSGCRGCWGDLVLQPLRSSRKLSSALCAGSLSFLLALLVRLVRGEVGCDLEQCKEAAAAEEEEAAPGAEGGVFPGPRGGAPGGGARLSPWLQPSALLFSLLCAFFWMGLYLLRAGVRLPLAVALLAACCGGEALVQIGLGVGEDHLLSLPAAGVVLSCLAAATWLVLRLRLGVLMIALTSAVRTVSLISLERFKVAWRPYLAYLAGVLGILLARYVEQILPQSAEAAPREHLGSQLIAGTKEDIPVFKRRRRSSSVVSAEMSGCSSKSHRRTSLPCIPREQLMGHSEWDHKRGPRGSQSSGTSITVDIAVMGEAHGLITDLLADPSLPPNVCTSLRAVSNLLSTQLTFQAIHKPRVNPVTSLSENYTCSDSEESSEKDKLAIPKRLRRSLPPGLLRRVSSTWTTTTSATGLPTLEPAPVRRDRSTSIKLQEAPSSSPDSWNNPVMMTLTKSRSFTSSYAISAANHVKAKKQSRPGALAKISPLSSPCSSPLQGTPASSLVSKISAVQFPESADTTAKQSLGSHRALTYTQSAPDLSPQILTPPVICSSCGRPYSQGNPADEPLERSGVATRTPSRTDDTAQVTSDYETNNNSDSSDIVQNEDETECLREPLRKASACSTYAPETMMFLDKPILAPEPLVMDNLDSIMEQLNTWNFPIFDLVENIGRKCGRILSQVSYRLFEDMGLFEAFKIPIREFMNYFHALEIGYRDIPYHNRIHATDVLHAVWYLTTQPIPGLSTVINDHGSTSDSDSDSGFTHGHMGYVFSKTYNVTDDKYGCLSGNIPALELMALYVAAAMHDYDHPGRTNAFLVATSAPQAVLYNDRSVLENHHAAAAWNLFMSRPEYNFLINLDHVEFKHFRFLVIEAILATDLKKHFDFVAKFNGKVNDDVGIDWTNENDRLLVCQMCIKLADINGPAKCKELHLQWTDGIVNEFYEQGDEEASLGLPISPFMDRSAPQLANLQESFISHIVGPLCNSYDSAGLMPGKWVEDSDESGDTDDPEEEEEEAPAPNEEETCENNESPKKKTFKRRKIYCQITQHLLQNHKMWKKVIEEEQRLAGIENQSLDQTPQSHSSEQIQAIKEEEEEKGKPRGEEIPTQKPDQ
Experimental: The PDE activity was determined according to Thompson et al. (Adv Cycl Nucl Res 10: 69-92, 1979) with some modifications (Bauer and Schwabe, Naunyn-Schmiedeberg's Arch Pharmacol 311: 193-198, 1980). The test samples contained 20 mM Tris (pH 7.4), 5 mM MgCl2, 0.5 μM cAMP or cGMP, [^3H]cAMP or [^3H]cGMP (about 30 000 cpm/sample), the PDE isoenzyme-specific additives described in greater detail below, the indicated concentrations of inhibitor and an aliquot of the enzyme solution in a total sample volume of 200 μl. Dilution series of the compounds according to the invention were prepared in DMSO and further diluted in the samples [1:100 (v/v)], to give the desired end concentration of the inhibitors at a DMSO concentration of 1% (v/v), which for its part has only a minute effect on PDE activity.
After preincubation at 37° C. for 5 minutes, the reaction was started by addition of the substrate (cAMP or cGMP). The samples were incubated at 37° C. for a further 15 min. The reaction was terminated by addition of 50 μl 0.2 N HCl. After cooling on ice for 10 minutes and addition of 25 μg 5′-nucleotidase (snake venom from Crotalus atrox), the mixture was again incubated at 37° C. for 10 mih and the samples were then applied to QAE Sephadex A-25 columns (sample volume 1 ml). The columns were eluted with 2 ml of 30 mM ammonium formate (pH 6.0). The radioactivity of the eluate was measured and corrected by the corresponding blank values (measured in the presence of denatured protein); the blank values were less than 5% of the total radioactivity. In no case did the proportion of hydrolyzed nucleotide exceed 30% of the original substrate concentration.
PDE3 (cGMP-inhibited) was investigated in homogenates of human platelets (see Schudt et al., Biochem Pharmacol 1991: 42, 153-162) using cAMP or cGMP as substrate.
The IC50 values were determined from the concentration-inhibition curves by nonlinear regression.

[3] = target: T2, PDE4B2 (Homo sapiens, UniProt Q07343); experiment: Inhibition of recombinant PDE4B2, Method B (SPA test); format: biochemical; settings: 0.5 μM cAMP, read-out: PDE4 Inhibition [measured as −logIC50 (mol/l)] (converted)
T2 construct: made in house; host or cells: baculovirus, SF21 insect cells (virus made in SF9); 1000 x g supernatant of the homogenate
T2 sequence (Q07343 1-564 isoform Q07343-2): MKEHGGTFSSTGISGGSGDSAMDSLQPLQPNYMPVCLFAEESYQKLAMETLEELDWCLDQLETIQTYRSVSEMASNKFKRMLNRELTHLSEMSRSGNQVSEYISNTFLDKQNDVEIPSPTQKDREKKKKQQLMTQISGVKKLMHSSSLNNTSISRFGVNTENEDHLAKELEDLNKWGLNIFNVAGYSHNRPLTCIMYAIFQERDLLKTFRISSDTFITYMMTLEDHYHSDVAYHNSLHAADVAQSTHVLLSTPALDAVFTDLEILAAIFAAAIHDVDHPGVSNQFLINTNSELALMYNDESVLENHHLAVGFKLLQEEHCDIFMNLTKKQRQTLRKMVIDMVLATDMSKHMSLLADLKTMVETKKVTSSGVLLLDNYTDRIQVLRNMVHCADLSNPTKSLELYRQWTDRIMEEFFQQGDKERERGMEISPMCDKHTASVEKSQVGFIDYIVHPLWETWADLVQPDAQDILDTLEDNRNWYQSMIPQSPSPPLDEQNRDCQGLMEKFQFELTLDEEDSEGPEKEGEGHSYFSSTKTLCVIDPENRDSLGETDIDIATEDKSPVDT
Experimental: The PDE4B2 (GB no. M97515) was a gift of Prof. M. Conti (Stanford University, USA). It was amplified from the original plasmid (pCMV5) via PCR with primers Rb9 (5′-[…]-3′) and Rb10 (5′-[…]-3′) and cloned into the pCR-Bac vector (Invitrogen, Groningen, NL).
(§1) The recombinant baculovirus was prepared by means of homologous recombination in SF9 insect cells. The expression plasmids were cotransfected with Bac-N-Blue (Invitrogen, Groningen, NL) or Baculo-Gold DNA (Pharmingen, Hamburg) using a standard protocol (Pharmingen, Hamburg). Wt virus-free recombinant virus supernatants were selected using plaque assay methods. After that, high-titre virus supernatants were prepared by amplifying 3 times. PDEs were expressed in SF21 cells by infecting 2×10^6 cells/ml with an MOI (multiplicity of infection) between 1 and 10 in serum-free SF900 medium (Life Technologies, Paisley, UK). The cells were cultured at 28° C. for 48-72 hours, after which they were pelleted for 5-10 min at 1000 g and 4° C.
(§2) The SF21 insect cells were resuspended, at a concentration of approx. 10^7 cells/ml, in ice-cold (4° C.) homogenization buffer (20 mM Tris, pH 8.2, containing the following additions: 140 mM NaCl, 3.8 mM KCl, 1 mM EGTA, 1 mM MgCl2, 10 mM β-mercaptoethanol, 2 mM benzamidine, 0.4 mM Pefablock, 10 μM leupeptin, 10 μM pepstatin A, 5 μM trypsin inhibitor) and disrupted by ultrasonication. The homogenate was then centrifuged for 10 min at 1000× g and the supernatant was stored at −80° C. until subsequent use (see below). The protein content was determined by the Bradford method (BioRad, Munich) using BSA as the standard.
PDE3A1 and PDE4B2 activities were inhibited by the said compounds in a modified SPA (scintillation proximity assay) test, supplied by Amersham Biosciences (see procedural instructions “phosphodiesterase [3H]cAMP SPA enzyme assay, code TRKQ 7090”), carried out in 96-well microtitre plates (MTP's). The test volume is 100 μl and contains 20 mM Tris buffer (pH 7.4), 0.1 mg of BSA (bovine serum albumin)/ml, 5 mM Mg^2+, 0.5 μM cAMP (including about 50,000 cpm of [3H]cAMP), 1 μl of the respective substance dilution in DMSO and sufficient recombinant PDE (1000× g supernatant, see above) to ensure that 10-20% of the cAMP is converted under the said experimental conditions. […] After a preincubation of 5 min at 37° C., the reaction is started by adding the substrate (cAMP) and the assays are incubated for a further 15 min; after that, they are stopped by adding SPA beads (50 μl). In accordance with the manufacturer's instructions, the SPA beads had previously been resuspended in water, but were then diluted 1:3 (v/v) in water; the diluted solution also contains 3 mM IBMX to ensure a complete PDE activity stop. After the beads have been sedimented (>30 min), the MTP's are analyzed in commercially available luminescence detection devices. The corresponding IC50 values of the compounds for the inhibition of PDE activities are determined from the concentration-effect curves by means of non-linear regression.

[4] = target: T3, PDE3A1 (Homo sapiens, UniProt Q14432); experiment: Inhibition of recombinant PDE3A1, Method B (SPA test); format: biochemical; settings: 0.5 μM cAMP, read-out: PDE3 Inhibition [measured as −logIC50 (mol/l)] (converted)
T3 construct: The whole ORF was subcloned into pBacPak9 (Clontech, Palo Alto) using EcoRi; made in house; host or cells: baculovirus (pBacPak9), SF21 insect cells (virus made in SF9); 1000 x g supernatant of the homogenate
T3 sequence (Q14432 whole entry): as the sequence (Q14432 whole entry) above
From the text: The cDNA for PDE3A1 (GB no. U36798) was isolated in 2 steps using PCR. A 3′ terminal cDNA fragment of PDE3A1 was amplified from fat cells cDNA (Clontech, Palo Alto) using primers OZ 458 (5′-[…]-3′) and OZ 457 (5′-[…]-3′). The 5′ terminal cDNA fragment of PDE3A1 was amplified from Placenta cDNA (Clontech, Palo Alto) using primers OZ 455 (5′-[…]-3′) and OZ 456 (5′-[…]-3′). The PCR products were cloned into pCR2.1-Topo (Invitrogen, Groningen, NL) under standard conditions (the manufacturer's instructions). The 3′ fragment was cut out with HindII and cloned into the HindII site of the construct carrying the 5′ fragment. The whole ORF was subcloned into pBacPak9 (Clontech, Palo Alto) using EcoRi. Aminoacid 12 is Aspartic Acid like in sequence GB no. AJ005036, aa 69 and aa 110 are respective Serine and Glycine like in both sequences GB no. AJ005036 and GB no. M91667.
as §1, §2
PDE3A1 and PDE4B2 activities were inhibited by the said compounds in a modified SPA (scintillation proximity assay) test, supplied by Amersham Biosciences (see procedural instructions “phosphodiesterase [3H]cAMP SPA enzyme assay, code TRKQ 7090”), carried out in 96-well microtitre plates (MTP's). The test volume is 100 μl and contains 20 mM Tris buffer (pH 7.4), 0.1 mg of BSA (bovine serum albumin)/ml, 5 mM Mg^2+, 0.5 μM cAMP (including about 50,000 cpm of [3H]cAMP), 1 μl of the respective substance dilution in DMSO and sufficient recombinant PDE (1000× g supernatant, see above) to ensure that 10-20% of the cAMP is converted under the said experimental conditions. […] After a preincubation of 5 min at 37° C., the reaction is started by adding the substrate (cAMP) and the assays are incubated for a further 15 min; after that, they are stopped by adding SPA beads (50 μl). […] After the beads have been sedimented (>30 min), the MTP's are analyzed in commercially available luminescence detection devices. The corresponding IC50 values of the compounds for the inhibition of PDE activities are determined from the concentration-effect curves by means of non-linear regression.

Chain of PDE4 (cAMP-specific) (Q07343 whole entry): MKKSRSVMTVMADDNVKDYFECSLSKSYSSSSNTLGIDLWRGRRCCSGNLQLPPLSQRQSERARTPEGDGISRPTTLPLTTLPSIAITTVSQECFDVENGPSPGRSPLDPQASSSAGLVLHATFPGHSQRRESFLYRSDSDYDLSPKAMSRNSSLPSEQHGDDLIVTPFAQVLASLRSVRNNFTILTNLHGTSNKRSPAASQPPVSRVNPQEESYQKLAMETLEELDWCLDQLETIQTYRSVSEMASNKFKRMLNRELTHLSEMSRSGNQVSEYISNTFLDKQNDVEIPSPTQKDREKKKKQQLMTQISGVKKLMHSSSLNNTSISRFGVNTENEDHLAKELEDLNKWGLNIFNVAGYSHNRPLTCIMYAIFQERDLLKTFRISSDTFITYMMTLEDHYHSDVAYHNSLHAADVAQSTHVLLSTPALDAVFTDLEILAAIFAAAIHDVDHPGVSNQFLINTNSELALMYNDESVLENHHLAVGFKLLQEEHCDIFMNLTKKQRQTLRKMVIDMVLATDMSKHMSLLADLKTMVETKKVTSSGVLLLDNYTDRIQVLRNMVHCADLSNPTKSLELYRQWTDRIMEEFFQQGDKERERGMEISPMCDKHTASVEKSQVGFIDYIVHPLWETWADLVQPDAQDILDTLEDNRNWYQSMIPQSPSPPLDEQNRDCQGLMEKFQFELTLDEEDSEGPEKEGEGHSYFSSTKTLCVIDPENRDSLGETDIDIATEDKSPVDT

Row | Compound | PDE4 Inhibition [measured as −logIC50 (mol/l)] [1] | PDE3 Inhibition [measured as −logIC50 (mol/l)] [2] | IC50 [3] | IC50 [4] | melting point
1 | COc1ccc(OC)c(S(=O)(=O)N2CCC(N3N=C(c4ccc(OC)c(OC)c4)CCC3=O)CC2)c1 [Compound 17] | 7.8 -log(mol/l) | 6.8 −log(mol/l) (pIC50) |  |  | 
2 | COc1ccc(C2=NN(C3CCN(S(=O)(=O)c4cccs4)CC3)C(=O)CC2)cc1OC [Compound 19, 6-(3,4-Dimethoxy-phenyl)-2-[1-(thiophene-2-sulfonyl)-piperidin-4-yl]-45-dihydro-2H-pyridazin-3-one] | 8.3 -log(mol/l) | 6.9 −log(mol/l) (pIC50) |  |  | 
3 | COc1ccc(C2=NN(C3CCN(C(=O)c4ccccc4)CC3)C(=O)CC2)cc1OC [Compound 23, 6-(3,4-Dimethoxy-phenyl)-2-[1-(1-phenyl-methanoyl)-piperidin-4-yl]-4,5-dihydro-2H-pyridazin-3-one] |  |  | 7.94 nM | 126 nM | 152 to 154 °C
4 | COc1ccc(C2=NN(C3CCN(C(=O)c4c(Cl)cc(Cl)cc4Cl)CC3)C(=O)CC2)cc1OC [Compound 25, 6-(3,4-Dimethoxy-phenyl)-2-{1-[1-(2,4,6-trichloro-phenyl)-methanoyl]-piperidin-4-yl}-4,5-dihydro-2H-pyridazin-3-one] |  |  | 2.51 nM | 15.8 nM | 156 to 159 °C
5 | COc1ccc(C2=NN(C3CCN(CC(=O)N4CCN(C)CC4)CC3)C(=O)CC2)cc1OC.Cl.Cl [Compound 28, 6-(3,4-Dimethoxy-phenyl)-2-{1-[2-(4-methyl-piperazin-1-yl)-2-oxo-ethyl]-piperidin-4-yl}-4,5-dihydro-2H-pyridazin-3-one dihydrochloride] |  |  | 20 nM | > 10000 nM | 194 to 199 °C
6 | COc1ccc(C2=NN(C3CCN(C(=O)CN4CCN(c5ccncc5)CC4)CC3)C(=O)CC2)cc1OC [Compound 29, 6-(3,4-Dimethoxy-phenyl)-2-{1-[2-(4-pyridin-4-yl-piperazin-1-yl)-ethanoyl]-piperidin-4-yl}-4,5-dihydro-2H-pyridazin-3-one dihydrochloride] |  |  | 15.8 nM | 3160 nM | 
7 | COc1ccc(C2=NN(C3CCN(C(=O)CN4CCN(C(c5ccccc5)c5ccccc5)CC4)CC3)C(=O)CC2)cc1OC.Cl.Cl [Compound 31, 6-(3,4-Dimethoxy-phenyl)-2-(1-{2-[4-(1,1-diphenyl-methyl)-piperazin-1-yl]-ethanoyl}-piperidin-4-yl)-4,5-dihydro-2H-pyridazin-3-one dihydrochloride] |  |  | 39.8 nM | 3980 nM | 126 to 127 °C
